Measurements taken from US11267823B2, “Substituted 1,2,3,3a,4,5,7,9,13,13a-decahydropyrido[1′,2′:4,5]pyrazino[1,2-a]pyrrolo[1,2-c]pyrimidines having HIV integrase inhibitory activity” (Shionogi & Co., Ltd., priority 2005, dated 2022).
Counter-ions that a name gives are not always drawn.

system: VSV-g pseudotyped HIV vector that expresses luciferase (PHIV); test: microbe, parasite or virus in culture; assay type: cell-based; conditions: Human immunodeficiency virus 1, HEK-293T, 48 h, read-out: PHIV IC50

| SMILES | IC50 [µM] |
| --- | --- |
| CC(C)[C@H]1CO[C@@H]2Cn3cc(C(=O)NCc4ccc(F)cc4F)c(=O)c(O)c3C(=O)N12 [Example Z-21, (3S,11aR)—N-[(2,4-Difluorophenyl)methyl]-6-hydroxy-3-(1-methylethyl)-5,7-dioxo-2,3,5,7,11,11a-hexahydro[1,3]oxazolo[3,2-a]pyrido[1,2-d]pyrazine-8-carboxamide] | < 0.01 |
| CS(=O)(=O)CC[C@H]1CO[C@@H]2Cn3cc(C(=O)NCc4ccc(F)cc4F)c(=O)c(O)c3C(=O)N12 [Example Z-27, (3S,11aR)—N-[(2,4-Difluorophenyl)methyl]-6-hydroxy-3-[2-(methylsulfonyl)ethyl]-5,7-dioxo-2,3,5,7,11,11a-hexahydro[1,3]oxazolo[3,2-a]pyrido[1,2-d]pyrazine-8-carboxamide] | > 0.1 |
| C[C@H]1CCN(C2CC2)[C@@H]2Cn3cc(C(=O)NCc4ccc(F)cc4F)c(=O)c(O)c3C(=O)N12 [Example Z-47, (4S,12aS)-1-Cyclopropyl-N-[(2,4-difluorophenyl)methyl]-7-hydroxy-4-methyl-6,8-dioxo-1,2,3,4,6,8,12,12a-octahydropyrido[1′,2′:4,5]pyrazino[1,2-a]pyrimidine-9-carboxamide] | < 0.01 |
| CC(=O)NCCN1C[C@@H]2CCCC[C@@H]2N2C(=O)c3c(O)c(=O)c(C(=O)NCc4ccc(F)cc4F)cn3C[C@@H]12 (racemic) [Example Z-55] | 0.01 to 0.1 |
| CC(C)CCN1CC[C@H](C)N2C(=O)c3c(O)c(=O)c(C(=O)NCc4ccc(F)cc4F)cn3C[C@@H]12 [Example Z-45, (4S,12aS)—N-[(2,4-Difluorophenyl)methyl]-7-hydroxy-4-methyl-1-(3-methylbutyl)-6,8-dioxo-1,2,3,4,6,8,12,12a-octahydropyrido[1′,2′:4,5]pyrazino[1,2-a]pyrimidine-9-carboxamide] | < 0.01 |
| O=C(NCc1ccc(F)cc1F)c1cn2c(c(O)c1=O)C(=O)N1[C@H](Cc3ccccc3)CO[C@H]1C2 [Example Z-16, (3R,11aS)—N-[(2,4-Difluorophenyl)methyl]-6-hydroxy-5,7-dioxo-3-(phenylmethyl)-2,3,5,7,11,11a-hexahydro[1,3]oxazolo[3,2-a]pyrido[1,2-d]pyrazine-8-carboxamide] | < 0.01 |
| C[C@H]1CCN(Cc2cccnc2)[C@@H]2Cn3cc(C(=O)NCc4ccc(F)cc4F)c(=O)c(O)c3C(=O)N12 [Example Z-46, (4S,12aS)—N-[(2,4-Difluorophenyl)methyl]-7-hydroxy-4-methyl-6,8-dioxo-1-(3-pyridinylmethyl)-1,2,3,4,6,8,12,12a-octahydropyrido[1′,2′:4,5]pyrazino[1,2-a]-pyrimidine-9-carboxamide] | < 0.01 |
| CC(C)CCN1CC[C@@H](C)N2C(=O)c3c(O)c(=O)c(C(=O)NCc4ccc(F)cc4F)cn3C[C@H]12 [Example Z-43] | < 0.01 |
| O=C(NCc1ccc(F)cc1F)c1cn2c(c(O)c1=O)C(=O)N1[C@@H](C2)N[C@H]2CCCC[C@@H]21 [Example Z-40, (6aS,7S,11aS)—N-[(2,4-Difluorophenyl)methyl]-1-hydroxy-2,13-dioxo-2,6a,7,7a,8,9,10,11,11a,13-decahydro-6H-pyrido[1′,2′:4,5]pyrazino[1,2-a]benzimidazole-3-carboxamide] | < 0.01 |
| CN1C[C@@H]2CCCC[C@@H]2N2C(=O)c3c(O)c(=O)c(C(=O)NCc4ccc(F)cc4F)cn3C[C@@H]12 (racemic) [Example Z-53, racemic-(4aS,6aS,14aS)—N-[(2,4-Difluorophenyl)methyl]-12-hydroxy-6-methyl-11,13-dioxo-1,2,3,4,4a,5,6,6a,7,11,13,14a-dodecahydropyrido[1′,2′:4,5]pyrazino[1,2-a]quinazoline-10-carboxamide] | < 0.01 |
| CC[C@H](C)[C@H]1CO[C@@H]2Cn3cc(C(=O)NCc4ccc(F)cc4F)c(=O)c(O)c3C(=O)N12 [Example Z-8, (3S,11aR)—N-[(2,4-Difluorophenyl)methyl]-6-hydroxy-3-[(1S)-1-methylpropyl]-5,7-dioxo-2,3,5,7,11,11a-hexahydro[1,3]oxazolo[3,2-a]pyrido[1,2-d]pyrazine-8-carboxamide sodium salt] | 0.01 to 0.1 |
| CC(C)CN1C[C@@H]2CCCC[C@@H]2N2C(=O)c3c(O)c(=O)c(C(=O)NCc4ccc(F)cc4F)cn3C[C@@H]12 (racemic) [Example Z-38, Sodium racemic-(4aS,6aS,14aS)-10-({[(2,4-difluorophenyl)methyl]amino}carbonyl)-6-(2-methylpropyl)-11,13-dioxo-1,2,3,4,4a,5,6,6a,7,11,13,14a-dodecahydropyrido[1′,2′:4,5]pyrazino[1,2-a]quinazolin-12-olate] | 0.01 to 0.1 |
| O=C(NCc1ccc(F)cc1F)c1cn2c(c(O)c1=O)C(=O)N1CC[C@@H]3CCCN3[C@@H]1C2 [Example Z-3, (3aS,13aS)—N-[(2,4-Difluorophenyl)methyl]-8-hydroxy-7,9-dioxo-1,2,3,3a,4,5,7,9,13,13a-decahydropyrido-[1′,2′:4,5]pyrazino[1,2-a]pyrrolo[1,2-c]pyrimidine-10-carboxamide] | < 0.01 |
| CC(C)N1CC[C@@H](C)N2C(=O)c3c(O)c(=O)c(C(=O)NCc4ccc(F)cc4)cn3C[C@H]12 [Example Z-30, (4R,12aR)—N-[(4-Fluorophenyl)methyl]-7-hydroxy-4-methyl-1-(1-methylethyl)-6,8-dioxo-1,2,3,4,6,8,12,12a-octahydropyrido[1′,2′:4,5]pyrazino[1,2-a]pyrimidine-9-carboxamide] | < 0.01 |
| CC(C)CN1C[C@@H]2CCC[C@@H]2N2C(=O)c3c(O)c(=O)c(C(=O)NCc4ccc(F)cc4F)cn3C[C@@H]12 (racemic) [Example Z-49, racemic-(3aS,5aS,13aS)—N-[(2,4-Difluorophenyl)methyl]-11-hydroxy-5-(2-methylpropyl)-10,12-dioxo-2,3,3a,4,5,5a,6,10,12,13a-decahydro-1H-cyclopenta[e]pyrido[1′,2′:4,5]pyrazino[1,2-a]pyrimidine-9-carboxamide] | < 0.01 |
| O=C(NCc1ccc(F)cc1F)c1cn2c(c(O)c1=O)C(=O)N1[C@@H](CC3CCCCC3)CO[C@@H]1C2 [Example Z-20] | 0.01 to 0.1 |
| O=C(NCc1ccc(F)cc1)c1cn2c(c(O)c1=O)C(=O)N1CC[C@@H]3CCCN3[C@@H]1C2 [Example Z-7, (3aS,13aS)—N-[(4-Fluorophenyl)methyl]-8-hydroxy-7,9-dioxo-1,2,3,3a,4,5,7,9,13,13a-decahydropyrido[1′,2′:4,5]pyrazino[1,2-a]pyrrolo[1,2-c]pyrimidine-10-carboxamide] | < 0.01 |
| O=C(NCc1ccc(F)cc1F)c1cn2c(c(O)c1=O)C(=O)N1C[C@@H]3CCCN3[C@H]1C2 [Example Z-2, (4aR,13aS)—N-[(2,4-Difluorophenyl)methyl]-10-hydroxy-9,11-dioxo-2,3,4a,5,9,11,13,13a-octahydro-1H-pyrido[1,2-a]pyrrolo[1′,2′:3,4]imidazo[1,2-d]pyrazine-8-carboxamide] | < 0.01 |
| CC(C)CN1CC[C@H](C)N2C(=O)c3c(O)c(=O)c(C(=O)NCc4ccc(F)cc4F)cn3C[C@@H]12 [Example Z-31, (4S,12aS)—N-[(2,4-Difluorophenyl)methyl]-7-hydroxy-4-methyl-1-(2-methylpropyl)-6,8-dioxo-1,2,3,4,6,8,12,12a-octahydropyrido[1′,2′:4,5]pyrazino[1,2-a]pyrimidine-9-carboxamide] | < 0.01 |
| C[C@H]1CO[C@@H]2Cn3cc(C(=O)NCc4ccc(F)cc4)c(=O)c(O)c3C(=O)N12 [Example Z-10, (3S,11aR)—N-[(4-fluorophenyl)methyl]-6-hydroxy-3-methyl-5,7-dioxo-2,3,5,7,11,11a-hexahydro[1,3]oxazolo[3,2-a]pyrido[1,2-d]pyrazine-8-carboxamide] | < 0.01 |
| O=C(NCc1ccc(F)cc1F)c1cn2c(c(O)c1=O)C(=O)N1CC[C@H]3CCCCN3[C@H]1C2 [Example Z-42, (4aR,14aR)—N-[(2,4-Difluorophenyl)methyl]-9-hydroxy-8,10-dioxo-2,3,4,4a,5,6,8,10,14,14a-decahydro-1H-pyrido[1,2-c]pyrido[1′,2′:4,5]pyrazino[1,2-a]pyrimidine-11-carboxamide] | < 0.01 |
| O=C(NCc1ccc(F)cc1F)c1cn2c(c(O)c1=O)C(=O)N1C[C@@H]3CCCCN3[C@@H]1C2 [Example Z-41, (5aS,14aS)—N-[(2,4-Difluorophenyl)methyl]-11-hydroxy-10,12-dioxo-1,2,3,4,5a,6,10,12,14,14a-decahydropyrido[1,2-a]pyrido[1′,2′:4,5]imidazo[1,2-d]pyrazine-9-carboxamide] | < 0.01 |
| O=C(NCc1ccc(F)cc1F)c1cn2c(c(O)c1=O)C(=O)N1[C@@H](C2)OC[C@@H]2C[C@@H](c3ccccc3)CC[C@@H]21 (racemic) [Example Z-37, racemic-(3S,4aR,6aR,14aS)—N-[(2,4-Difluorophenyl)methyl]-12-hydroxy-11,13-dioxo-3-phenyl-1,3,4,4a,5,6a,7,11,13,14a-decahydro-2H-pyrido[1′,2′:4,5]pyrazino[1,2-a][3,1]benzoxazine-10-carboxamide] | < 0.01 |
| CC(C)(C)[C@H]1CO[C@@H]2Cn3cc(C(=O)NCc4ccc(F)cc4F)c(=O)c(O)c3C(=O)N21 [Example Z-11, (3S,11aR)—N-[(2,4-Difluorophenyl)methyl]-3-(1,1-dimethylethyl)-6-hydroxy-5,7-dioxo-2,3,5,7,11,11a-hexahydro[1,3]oxazolo[3,2-a]pyrido[1,2-d]pyrazine-8-carboxamide] | < 0.01 |
| O=C(NCc1ccc(F)cc1)c1cn2c(c(O)c1=O)C(=O)N1C[C@H]3CCCN3[C@@H]1C2 [Example Z-5, (4aS,13aR)—N-[(4-Fluorophenyl)methyl]-10-hydroxy-9,11-dioxo-2,3,4a,5,9,11,13,13a-octahydro-1H-pyrido[1,2-a]pyrrolo[1′,2′:3,4]imidazo[1,2-d]pyrazine-8-carboxamide] | < 0.01 |
| O=C(NCc1ccc(F)cc1F)c1cn2c(c(O)c1=O)C(=O)N1[C@@H](C2)OC[C@@H]2CCC[C@@H]21 (racemic) [Example Z-52, racemic-(3aR,5aR,13aS)—N-[(2,4-Difluorophenyl)methyl]-11-hydroxy-10,12-dioxo-1,2,3,3a,4,5a,6,10,12,13a-decahydrocyclopenta[d]pyrido[1′,2′:4,5]pyrazino[2,1-b][1,3]oxazine-9-carboxamide] | < 0.01 |
